In data set [1] the test system is Ang-(1-7) formation from Ang II (ACE2, PCP) in murine kidney homogenates. Briefly: Ang II turnover to Ang-(1-7) in murine kidney homogenates with and without enzyme inhibitors. The class given is biochemical, mouse. As to conditions: Ang II spike, 37 °C, LC-MS/MS, n = 4. On the procedure:
(§1) Angiotensin peptide quantification by liquid chromatography tandem-mass spectrometry analysis (LC-MS/MS) was performed by Attoquant Diagnostics GmbH (Vienna, Austria) as previously described.

The subject of data set [2] is CES1. As to conditions: liver; cited from earlier work.
Data set [3] concerns Ang-(1-7) and Ang II formation from Ang I (NEP, PEP, ACE, chymase) in human kidney homogenates. The procedure:
(§2) This study was approved by the Ethics Committee of the Medical University of Vienna (EK #1496/2014) and was performed in accordance to the good clinical practice guidelines. Written informed consent was obtained before biopsies were taken perioperative from 5 kidney donors in 2014. Renal biopsies were either snap frozen in liquid nitrogen for angiotensin metabolism analysis or fixed in formalin for histological examination.
Metabolic RAS analysis was performed by Attoquant Diagnostics GmbH, Vienna, Austria. Renal biopsies of mice and humans were extracted and homogenized in phosphate-buffered saline (PBS) using low-energy sonication. The metabolism of spiked Ang I, Ang II (Fisher Scientific) or recombinant murine AGT (Sino Biological Inc.) for the renin activity assay, respectively, was assayed in homogenates after ex vivo incubation at 37 °C in presence or absence of specific enzyme inhibitors. […] Aminopeptidase Inhibitor (10 μM, Sigma-Aldrich) was added to all samples.
The enzyme activity was calculated by determining the inhibitor sensitive part of product formation in incubated samples and is presented as a product formation in ng of the corresponding angiotensin product per μg protein per hour. In order to proof linearity of the assay in dependence of enzyme abundance, Ang I and Ang II metabolism were assayed in serial diluted kidney homogenates (Supplementary Fig. 6). All experiments were performed in the linear range of the assay.
as §1

The subject of data set [4] is Ang-(1-7) and Ang II formation from Ang I (NEP, PEP, ACE) in murine kidney homogenates. Format: biochemical, mouse. On the procedure:
as §1

In data set [5] the test system is ACE. As to conditions: cited from earlier work.
In data set [6] the target is T1, NEP (Mus musculus, UniProt Q61391).
T1 construct: Consecutive tissue sections were prepared from fresh frozen kidneys (n = 4); from tissue; host or cells: murine kidney cryo-sections (fresh frozen)
T1 sequence (Q61391 1-750): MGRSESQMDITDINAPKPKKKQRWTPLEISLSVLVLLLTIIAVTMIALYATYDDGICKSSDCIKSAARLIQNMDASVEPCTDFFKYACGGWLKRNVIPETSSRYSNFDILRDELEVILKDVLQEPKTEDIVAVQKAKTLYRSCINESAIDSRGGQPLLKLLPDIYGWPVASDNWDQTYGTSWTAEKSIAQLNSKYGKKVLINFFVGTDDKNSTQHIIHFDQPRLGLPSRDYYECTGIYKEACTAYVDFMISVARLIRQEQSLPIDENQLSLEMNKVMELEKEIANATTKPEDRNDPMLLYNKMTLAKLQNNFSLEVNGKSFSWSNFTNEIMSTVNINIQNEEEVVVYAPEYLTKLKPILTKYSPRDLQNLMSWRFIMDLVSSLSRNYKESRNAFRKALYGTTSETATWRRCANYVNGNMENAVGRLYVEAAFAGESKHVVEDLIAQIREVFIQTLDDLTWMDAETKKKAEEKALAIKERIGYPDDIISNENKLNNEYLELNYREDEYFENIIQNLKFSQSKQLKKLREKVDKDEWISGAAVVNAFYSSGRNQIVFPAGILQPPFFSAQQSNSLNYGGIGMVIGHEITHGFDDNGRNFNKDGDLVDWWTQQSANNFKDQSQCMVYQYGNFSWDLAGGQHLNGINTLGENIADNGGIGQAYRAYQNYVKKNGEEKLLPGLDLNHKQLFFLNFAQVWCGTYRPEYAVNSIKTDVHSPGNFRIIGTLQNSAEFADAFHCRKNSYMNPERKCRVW
Briefly: MALDI-Imaging of Ang I to Ang-(1-7) turnover in murine kidney cryo-sections. The class given is biochemical. On the procedure: Consecutive tissue sections were prepared from fresh frozen kidneys (n = 4) as previously described[37] and incubated with 772 μM Ang I at 37 °C for 5 min. […] The imaging technique is described in detail elsewhere.

Data set [7] relates to murine kidney angiotensin levels. Briefly: Renal angiotensin metabolites in mice treated i.p. with NEP inhibitor. The class given is in vivo, mouse. As to conditions: 50 mg/kg i.p. On the procedure:
(§3) 10 to 12 weeks old female wild-type with C57BL/6j background were maintained at the animal care facility of the University Duesseldorf, Germany under a 12 h light/dark cycle, normal chew (SNIFF, Soest) and tap water ad libitum. Vehicle (50% DMSO) or NEP-inhibitor (LBQ657 (Sigma-Aldrich): 50 mg/kg) were administrated i.p. 4 hours prior to kidney and heparin plasma sampling. Kidneys were obtained as given above, while heparin plasma was incubated for 30 min at 37 °C for equilibrium analysis, stabilized[38] and stored at −80 °C until shipment.
as §1

Data set [8] has as its system murine plasma equilibrium angiotensin levels. Briefly: Equilibrium plasma angiotensin metabolites in mice treated i.p. with NEP inhibitor. Format: in vivo, mouse. As to conditions: 50 mg/kg i.p., 4 hours, mean ± s.e.m., n = 5. On the procedure: as §3, §1
The subject of data set [9] is Ang-(1-7) formation from Ang II (ACE2, PCP) in human kidney homogenates. Briefly: Ang II turnover to Ang-(1-7) in human kidney biopsy homogenates. The class given is biochemical. As to conditions: human kidney biopsy homogenate, inhibitor sensitive formation rate of Fig. 2d, mean ± s.d., n = 5. On the procedure:
as §2
Metabolic RAS analysis was performed by Attoquant Diagnostics GmbH, Vienna, Austria. Renal biopsies of mice and humans were extracted and homogenized in phosphate-buffered saline (PBS) using low-energy sonication. The metabolism of spiked Ang I, Ang II (Fisher Scientific) or recombinant murine AGT (Sino Biological Inc.) for the renin activity assay, respectively, was assayed in homogenates after ex vivo incubation at 37 °C in presence or absence of specific enzyme inhibitors. […]
The enzyme activity was calculated by determining the inhibitor sensitive part of product formation in incubated samples and is presented as a product formation in ng of the corresponding angiotensin product per μg protein per hour. […]
as §1

Where [10] appears, read: 4 hours prior to sampling, LC-MS/MS, mean ± s.e.m., n = 5.
The mark [11] stands for this setting: ratio of renal levels, 4 hours, mean ± s.e.m., n = 5.
[12] abbreviates: heparin plasma incubated 30 min at 37 °C, LC-MS/MS.
[13] abbreviates: ratio of equilibrium plasma levels.
The mark [14] stands for this setting: mouse kidney homogenate, Ang I spike, 37 °C, lisinopril 10 μM, LC-MS/MS, n = 4.

Ends that are not written are not given here. Peptide text beside a SMILES is read from it. * marks the point of attachment. Cbz = O=C(OCc1ccccc1)*

Take `CC(C)C[C@H](N[C@@H](Cc1cncn1Cc1cc(Cl)cc(Cl)c1)C(=O)O)C(=O)O` [MLN-4760]: in data set [1] (ACE2 KO mouse kidney homogenate in PBS, MLN-4760 10 μM, aminopeptidase inhibitor 10 μM in all samples), the “Effect on Ang-(1-7) formation from Ang II, ACE2 KO kidney” value is listed as “no effect”. For the same compound, the “Effect on Ang-(1-7) formation from Ang II, wild-type kidney” value in [1] (wild-type mouse kidney homogenate in PBS, MLN-4760 10 μM) is listed as “reduced Ang-(1-7) formation in wild-type mice to the level of ACE2 KOs”.

Turning to `CCOC(=O)[C@H](C)C[C@@H](Cc1ccc(-c2ccccc2)cc1)NC(=O)CCC(=O)O` [AHU-377], the “Activation of the prodrug” value in data set [2] is on record as “physiologically activated in the liver by CES1”.

Take DRVYIHPFHL [Ang I, angiotensin I]: in data set [3], the “Enzymatic contribution of ACE, Ang I to Ang II” value stood at 25 ± 7%; the “Enzymatic contribution of NEP, Ang I to Ang-(1-7)” value was determined as 63 ± 10%; the “Enzymatic contribution of PEP, Ang I to Ang-(1-7)” value is listed as 10 ± 3%; the “Enzymatic contribution of chymase, Ang I to Ang II” value is 2 ± 2%. Moreover, in data set [3], the “Share of Ang I converted to Ang II” value is 27 ± 9% and the “Share of Ang I converted to Ang-(1-7)” value turned out to be 73 ± 9%. In [4], the “Enzymatic contribution of NEP, Ang I to Ang-(1-7)” value was found to be 50 ± 1%; the “Enzymatic contribution of PEP, Ang I to Ang-(1-7)” value is listed as 23 ± 1%; the “Share of Ang I converted directly to Ang-(1-7)” value is on record as 73.4 ± 2.1%; the “Share of Ang I metabolized to Ang II (ACE)” value was 26.6 ± 2.1%.

On to `O=C[C@@H]1CCCN1C(=O)[C@@H]1CCCN1C(=O)OCc1ccccc1` [ZPP, N-benzyloxycarbonyl-prolyl-prolinal] (Cbz-Pro-Pro-aldehyde), for which the “Effect on Ang-(1-7) formation from Ang I, ZPP on top of lisinopril and DL-thiorphan” value in data set [4] (mouse kidney homogenate, Ang I spike, 37 °C, ZPP 20 μM, LC-MS/MS, n = 4) is “further significantly reduced Ang-(1-7) formation”. In addition, in [1] (mouse kidney homogenate, ZPP 20 μM in addition to MLN-4760 10 μM), the “Effect on Ang-(1-7) formation from Ang II, ZPP added to MLN-4760” value is given as “abolished Ang-(1-7) formation completely”.

Take `O=C(O)CNC(=O)C(CS)Cc1ccccc1` (racemic) [DL-thiorphan]: the “Effect on turnover from Ang I to Ang-(1-7)” value in data set [3] (human kidney biopsy homogenate, DL-thiorphan 100 μM with lisinopril 10 μM, n = 5) is listed as “reduced significantly”; in [4] (mouse kidney homogenate, DL-thiorphan 100 μM with lisinopril 10 μM, n = 4) it was “reduced significantly”. In addition, the ACE inhibitory activity result in data set [5] is “weak ACE inhibitory activity”. In [4] (mouse kidney homogenate, Ang I spike, 37 °C, DL-thiorphan 100 μM used only in combination with lisinopril 10 μM, LC-MS/MS), the “Reduction of Ang-(1-7) formation from Ang I” value stood at 75.2 ± 1.8%. For the same compound, the “Effect on Ang-(1-7) formation from Ang I, MALDI-Imaging intensity” value in data set [6] (murine kidney cryo-sections, 772 μM Ang I, 37 °C, 5 min, 100 μM DL-thiorphan in presence of 10 μM lisinopril, n = 4, p = 0.045 vs. 10 μM lisinopril) is given as “significant reduction of Ang-(1-7) formation from Ang I”.

With `C[C@H](C[C@@H](Cc1ccc(-c2ccccc2)cc1)NC(=O)CCC(=O)O)C(=O)O` [LBQ657], in data set [7] (setting [10]), the “Renal Ang I” value is listed as 277 ± 31 pg/g, the “Renal Ang II” value is 642 ± 99 pg/g, the “Renal Ang-(1-7)” value is 35 ± 4 pg/g and the “Renal Ang-(1-9)” value was 162 ± 10 pg/g. Also, in data set [7] (setting [10]), the “Renal Ang-(2-8)” value was determined as 195 ± 28 pg/g and the “Renal Ang-(2-10)” value was 89 ± 16 pg/g. Moreover, in data set [7] (4 hours prior to sampling, LC-MS/MS, p = 0.026), the “Reduction of Ang-(1-7) levels in the murine kidney” value was determined as 53.1 ± 10.6%. For the same compound, in data set [7] (setting [11]), the “Renal Ang-(1-7)/Ang I (x100)” value was 13.4 ± 2.0 and the “Renal Ang-(1-7)/Ang II (x100)” value was 6.1 ± 1.2. Besides, in data set [8] (setting [12]), the “Equilibrium plasma Ang I” value was determined as 970 ± 341 pg/mL, the “Equilibrium plasma Ang II” value was determined as 1423 ± 540 pg/mL, the “Equilibrium plasma Ang-(1-5)” value stood at 73 ± 34 pg/mL and the “Equilibrium plasma Ang-(1-7)” value amounted to 20 ± 7 pg/mL. Moreover, in [8] (setting [12]), the “Equilibrium plasma Ang-(2-8)” value was 269 ± 91 pg/mL and the “Equilibrium plasma Ang-(3-8)” value worked out at 114 ± 36 pg/mL. Also, in data set [8] (setting [13]), the “Equilibrium plasma Ang-(1-7)/Ang I (x100)” value came out at 1.8 ± 0.2 and the “Equilibrium plasma Ang-(1-7)/Ang II (x100)” value is 1.5 ± 0.2.

As to `CC(C)C[C@H](NC(=O)[C@@H](NC(=O)N[C@@H](Cc1ccccc1)C(=O)O)[C@@H]1CCN=C(N)N1)C(=O)N[C@H](C=O)Cc1ccccc1` [chymostatin], the “Effect on ACE independent Ang II formation from Ang I” value in data set [3] (human kidney biopsy homogenate, Ang I spike, 37 °C, chymostatin 10 μM, LC-MS/MS, n = 5) is “At least a part of ACE independent Ang II formation was blocked”.

For `NCCCC[C@H](N[C@@H](CCc1ccccc1)C(=O)O)C(=O)N1CCC[C@H]1C(=O)O` [lisinopril], in data set [3] (human kidney biopsy homogenate, Ang I spike, 37 °C, lisinopril 10 μM, LC-MS/MS, n = 5), the “Effect on Ang II formation from Ang I” value is reported as “not able to completely abolish Ang II formation”. Further, in [4] (setting [14]), the “Effect on Ang II formation from Ang I” value is listed as “efficiently blocked” and the “Effect on Ang-(1-7) formation from Ang I” value is given as “remained unaffected”. In data set [6] (murine kidney slices incubated with Ang I, lisinopril 0 μM–10 μM, MALDI-Imaging), the “Ang-(1-7) signal with increasing inhibitor concentration” value is given as “concentration dependent increase of Ang-(1-7)”.

With `CC[C@H](C)[C@H](NC(=O)[C@H](Cc1ccc(O)cc1)NC(=O)[C@@H](NC(=O)[C@H](CCCNC(=N)N)NC(=O)[C@@H](N)CC(=O)O)C(C)C)C(=O)N[C@@H](Cc1cnc[nH]1)C(=O)N1CCC[C@H]1C(=O)N[C@@H](Cc1ccccc1)C(=O)O` [Ang II, angiotensin II], the “Enzymatic contribution of ACE2, Ang II to Ang-(1-7)” value in data set [9] came out at 88.2 ± 4.3%.
